Results reported in article PMC7957705 (Molecules, 2021).
“Also recorded” adds a separate entry of the source. Marks after values point to notes of the source that are not given here. Where a SMILES comes first, the peptide text is derived from it. Bridges are numbered along the chain shown (N, C = ends). Triazole bridges read from a SMILES are 1,4-linked. [ ]: non-standard residue; d: D form. The star is where a group is joined. Benzoyl(4-guanidino) = N=C(N)Nc1ccc(C(=O)*)cc1; Aha = [N-]=[N+]=NCC[C@H](N)C(=O)O; β3hV = CC(C)[C@H](N)CC(=O)O; Nle = CCCC[C@H](N)C(=O)O; Pra = C#CC[C@H](N)C(=O)O

System: high-fat diet-induced obese C57BL/6 mice
Assay: Diet-induced obesity model: blood biochemistry
Assay type: in vivo, mouse
Conditions: for Insulin / Total Cholesterol / Triglyceride: High-Fat Diet mice
Experimental: Male C57BL/6 mice at 4 weeks of age were provided by BioLasco Taiwan (under Charles River Laboratories Licensee). All animals were maintained in an environment with well-controlled temperature (20–24 °C) and humidity (30–70%) with 12 h light/dark cycles. Free access to standard lab diet (MFG (Oriental Yeast Co., Ltd., Japan)) and autoclaved tap water was granted. All aspects of this work including housing, experimentation, and animal disposal were performed in general accordance with the “Guide for the Care and Use of Laboratory Animals: Eighth Edition” (National Academies Press, Washington, D.C., 2011) in our laboratory animal facility accredited by the […]. In addition, the protocol for animal care and use was reviewed and approved by the Institutional Animal Care and Use Committee (IACUC) at Pharmacology Discovery Services Taiwan, Ltd.
ALT (Alanine aminotransferase) and AST (Aspartate aminotransferase) assay kit (Denka Seiken, Japan), Cholesterol assay kit (Denka, Japan), Creatinine assay kit (Denka Seiken, Japan), Mouse insulin ELISA kit (Crystal chem, Elk Grove Village, IL, USA), Na^+/K^+ assay kit (Toshiba, Japan), Triglyceride assay kit (Sentinel Diagnostics, Milano, Italy) and Water for injection (Tai-Yu, Taiwan).
The protocol was performed for all groups and all animals. Male C57BL/6 mice were fed a high-fat diet (HFD) (60% of calories) or a standard chow diet (STD) from 4 weeks of age. Thirty (30) mice were fed the HFD and 10 mice were fed the STD (for 8 weeks before treatment) for a total of 20 weeks. The mice assigned to the STD diet were maintained on this diet throughout the study as a reference group of lean control mice. From Week 9, HFD-fed mice were grouped by body weight before dosing. Body weight was recorded three times weekly from Week 9. Food/water intake was recorded twice weekly from Week 9. Blood chemistry analyzes were performed in Weeks 8 (before dosing, Day 56), 16 (Day 113) and 20 (Day 141), including serum insulin, total cholesterol (T-CHO), triglyceride (TG), alanine aminotransferase (ALT), aspartate aminotransferase (AST), uric acid (UA), creatinine, potassium (K^+) and sodium (Na^+). At the termination in Week 20 (Day 141), the adipose tissue weight, including epididymal, mesenteric, inguinal, retroperitoneal, and brown fat, was measured after the animals were sacrificed. Two-way ANOVA followed by Bonferroni’s tests were applied to ascertain the difference between vehicle control and treated animals. Significance was set at p < 0.05 level. The following parameters were measured: (1) body weight three times weekly; (2) food/water intake twice weekly; (3) blood chemistry in Weeks 8 (before dosing), 16 and 20 including glucose, insulin, serum lipids (triglycerides (TG), total cholesterol (TC), AST, alanine aminotransferase (ALT), uric acid, creatinine, potassium and sodium through 16-h fasting animals; and finally, (4) total body fat (including visceral and subcutaneous fat) in Week 20.

[1] = 5 and 10 mg/kg i.p. once daily for 12 weeks, day 113 and day 141
[2] = 5 or 10 mg/kg i.p. daily, HFD mice
[3] = 5 or 10 mg/kg i.p. daily, Day 113 and Day 141
[4] = 5 mg/kg QD x 12 weeks IP, Day 56 (before dosing), mean
[5] = 5 mg/kg QD x 12 weeks IP, Day 113, mean
[6] = 5 mg/kg QD x 12 weeks IP, Day 141, mean
[7] = 10 mg/kg QD x 12 weeks IP, Day 56 (before dosing), mean
[8] = 10 mg/kg QD x 12 weeks IP, Day 113, mean
[9] = 10 mg/kg QD x 12 weeks IP, Day 141, mean

CCCC[C@@H]1NC(=O)[C@@H](NC(=O)c2ccc(NC(=N)N)cc2)CCn2cc(nn2)C[C@@H](C(=O)N[C@@H](Cc2c[nH]c3ccccc23)C(=O)O)NC(=O)[C@@H]2CCCN2C(=O)[C@H](CCCNC(=N)N)NC(=O)C[C@H](C(C)C)NC(=O)[C@H](CCCNC(=N)N)NC(=O)[C@H](CC(C)C)NC1=O [GPS18169] ({Benzoyl(4-guanidino)}-[Aha][Nle]LR[β3hV]RP[Pra]W-OH; triazole 1-8)
insulin level (10 mg/kg daily, 12 weeks, vs vehicle treated/normal diet): back to the control
serum alanine aminotransferase (ALT) level vs vehicle [1]: not associated with any significant effect
serum aspartate aminotransferase (AST) level vs vehicle [1]: not associated with any significant effect
total cholesterol level [2]: remained high, despite a modest reduction; also recorded: improvement
triglycerides level [2]: remained high, despite a modest reduction; also recorded: improvement
insulin level (5 or 10 mg/kg i.p. daily, after 12 weeks of treatment, HFD mice): normalization; also recorded: significant reduction; also recorded: improvement; also recorded: return to almost normal
serum creatinine level vs vehicle [3]: did not lead to any significant effect
serum potassium (K+) level vs vehicle [3]: did not lead to any significant effect
serum sodium (Na+) level vs vehicle [3]: did not lead to any significant effect
serum uric acid (UA) level vs vehicle (5 or 10 mg/kg i.p. daily, Week 16 (Day 113) and Week 20 (Day 141)): did not lead to any significant effect
Insulin [4]: 909.5 pg/mL
Total Cholesterol [4]: 158.3 mg/dL
Triglyceride [4]: 121.8 mg/dL
Insulin [5]: 1983.8 pg/mL
Total Cholesterol [5]: 143.1 mg/dL
Triglyceride [5]: 115.3 mg/dL
Total Cholesterol [6]: 135.6 mg/dL
Triglyceride [6]: 108.9 mg/dL
Insulin [7]: 1068.0 pg/mL
Total Cholesterol [7]: 155.6 mg/dL
Triglyceride [7]: 122.9 mg/dL
Insulin [8]: 1549.7 pg/mL
Total Cholesterol [8]: 135.7 mg/dL
Triglyceride [8]: 108.3 mg/dL
Insulin [9]: 957.0 * pg/mL
Total Cholesterol [9]: 132.1 mg/dL
Triglyceride [9]: 102.1 mg/dL
